The source of these data is patent US9593305B2, “Differentiation of pluripotent stem cells” (Janssen Biotech, Inc., priority 2008, dated 2017).

For assay [1], the system named is H1 human embryonic stem cells. As to the kind of experiment: Step-wise differentiation, FACS for CXCR4 after step 1 (Example 16). To be noted: 100 ng/ml GDF-8 with compound on first day, compared to activin A and Wnt3a. Format: cell-based. On the procedure: The assay was initiated by aspirating the culture medium from each well and adding back an aliquot (0.5 ml) of test medium. Test conditions for the first step of differentiation were conducted over a three-day period, feeding daily by aspirating and replacing the medium from each well with fresh test medium. On the first day of assay, 100 ng/ml activin A (PeproTech; Cat #120-14) or 100 ng/ml GDF-8 (R&D Systems, Cat #788-G8) was added to respective assay wells where each growth factor was diluted into RPMI-1640 medium (Invitrogen; Cat #: 22400) with 2% Albumin Bovine Fraction V, Fatty Acid Free (FAF BSA) (Proliant Inc. Cat #: SKU 68700), and 20 ng/ml Wnt3a (R&D Systems; Cat #1324-WN/CF). On the second day of assay, 100 ng/ml activin A or 100 ng/ml GDF-8 was diluted into RPMI-1640 medium supplemented with 2% FAF BSA without Wnt3a. In some test samples using GDF-8, Wnt3a was replaced with a small molecule compound, added only on the first day of definitive endoderm differentiation. These small molecules included Compound 19 (2.5 μM in assay), Compound 202 (2.5 μM in assay), Compound 40 (2.5 μM in assay), or a commercially available GSK3 inhibitor BIO (0.5 μM in assay) (EMD Chemicals, Inc.; Cat #361550). At the conclusion of the first step of differentiation, cells from some wells were harvested for flow cytometry analysis to evaluate levels of CXCR4, a marker of definitive endoderm formation. Additional wells were harvested for RT-PCR analysis to measure other markers of differentiation.
Cells for FACS analysis were blocked in a 1:5 solution of 0.5% human gamma-globulin (Sigma; Cat#G-4386) in PBS (Invitrogen; Cat #14040-133): BD FACS staining buffer—BSA (BD; Cat #554657) for 15 minutes at 4° C. Cells were then stained with antibodies for CD9 PE (BD; Cat #555372), CD99 PE (Caltag; #MHCD9904) and CXCR4 APC(R&D Systems; Cat#FAB 173A) for 30 minutes at 4° C. After a series of washes in BD FACS staining buffer, the cells were stained for viability with 7-AAD (BD; Cat #559925) and run on a BD FACSArray. […]

The subject of assay [2] is H1 human embryonic stem cells. As to the kind of experiment: Screen of CDK, GSK3 and TRK inhibitors with or without GDF-8, SOX17 and cell number (Example 20, Table 17). It is filed as cell-based. Particulars: for Cell Number, Average Total Cell Number / Sox17 Expression, Average Total Intensity / Cell Number, % of positive control / Sox17 Expression, % of positive control: Plate 1; for Cell Number, % of positive control / Sox17 Expression, % of positive control: positive control = Activin A/Wnt3a. On the procedure: Briefly, clusters of H1 human embryonic stem cells were grown on reduced growth factor Matrigel™ (Invitrogen; Cat #356231) coated tissue culture plastic. Cells were passaged using collagenase (Invitrogen; Cat #17104-019) treatment and gentle scraping, washed to remove residual enzyme, and plated with even dispersal at a ratio of 1:1 (surface area) on reduced growth factor […]™ (BD Biosciences; Cat #356231)-coated 96-well black plates (Packard ViewPlates; PerkinElmer; Cat #6005182) using volumes of 100 μl/well. Cells were allowed to attach and then recover log phase growth over a 1 to 3 day time period, feeding daily with MEF conditioned medium supplemented with 8 ng/ml bFGF (R&D Systems; Cat #233-FB). Plates were maintained at 37° C., 5% CO2 in a humidified box throughout the duration of assay.
Screening was conducted using the compounds described in Table 16. […] Compounds were made available as 5 mM stocks in 96-well plate format, solubilized in 100% DMSO (Sigma; Cat #D2650) and stored at −80° C. The library compounds were further diluted to an intermediate concentration of 0.2 mM in 50 mM HEPES (Invitrogen; Cat #15630-080), 20% DMSO and stored at 4° C. Test conditions were performed in triplicate, feeding on alternating days over a four-day assay period. Assay was initiated by aspirating culture medium from each well followed by three washes in PBS (Invitrogen; Cat #14190) to remove residual growth factors. On the first day of assay, test volumes of 200 μl per well were added to each well using DMEM:F12 base medium (Invitrogen; Cat #11330-032) supplemented with 0.5% FCS (HyClone; Cat #SH30070.03) and 100 ng/ml GDF-8 (R&D Systems, Cat #788-G8) plus 2.5 μM compound. A parallel set of test samples were treated in an identical manner but omitting GDF-8 from the medium. On the third day of assay, test volumes of 100 μper well were added to each well using DMEM:F12 base medium supplemented with 2% FCS plus 100 ng/ml GDF-8 (R&D Systems, Cat #788-G8). […] Positive control samples contained the same base medium supplemented with FCS and 100 ng/ml recombinant human activin A (PeproTech; Cat #120-14) throughout the four day assay along with Wnt3a (20 ng/ml) addition on days 1 and 2. Negative control samples contained DMEM:F12 base medium supplemented with FCS.
At the conclusion of four-days of culture, assay plates were washed twice with PBS (Invitrogen; Cat #14190), fixed with 4% paraformaldehyde (Alexis Biochemical; Cat #ALX-350-011) at room temperature for 20 minutes, then washed three times with PBS and permeabilized with 0.5% Triton X-100 (Sigma; Cat #T8760-2) for 20 minutes at room temperature. Cells were washed again three times with PBS and blocked with 4% chicken serum (Invitrogen; Cat #16110082) in PBS for 30 minutes at room temperature. Primary antibody (goat anti-human SOX17; R&D Systems; Cat #AF1924) was diluted 1:100 in 4% chicken serum and added to each well for one hour at room temperature. Alexa Fluor 488 conjugated secondary antibody (chicken anti-goat IgG; Molecular Probes; Cat #AZ1467) was diluted 1:200 in PBS and added to each sample well after washing three times with PBS. To counterstain nuclei, 4 μg/ml Hoechst 33342 (Invitrogen; Cat #H3570) was added for ten minutes at room temperature. Plates were washed once with PBS and left in 100 μl/well PBS for imaging.
Imaging was performed using an IN Cell Analyzer 1000 (GE Healthcare) utilizing the 51008bs dichroic for cells stained with Hoechst 33342 and Alexa Fluor 488. Exposure times were optimized from positive control wells and from untreated negative control wells stained with secondary antibody alone. Images from 15 fields per well were acquired to compensate for any cell loss during the bioassay and subsequent staining procedures. Measurements for total cell number and total SOX17 intensity were obtained from each well using IN Cell Developer Toolbox 1.7 (GE Healthcare) software. […]

The mark [3] stands for this setting: compound in combination with GDF8.
Where [4] appears, read: growth factor treatment alone, no compound.

As to `CN1CCC(=O)NCCCc2cncc(c2)-c2ncnc(n2)Nc2cccc(c2)C1` [Compound 19, 14-Methyl-3,5,7,14,18,24,28-heptaazatetracyclo[20.3.1.1˜2,6˜0.1˜8,12˜]octacosa-1(26), 2(28), 3,5,8(27), 9,11,22,24-nonaen-17-one], the “percentage of CXCR4 positive cells after step 1” value in assay [1] was “equivalent or slightly higher percentage of CXCR4 positive cells”.

In the case of `C=CCN1CC(=O)NCCCc2cncc(c2)-c2ncnc(n2)Nc2cccc(c2)C1` [Compound 40, 14-Prop-2-en-1-yl-3,5,7,14,17,23,27-heptaazatetracyclo[19.3.1.1˜2.6˜0.1˜8,12˜]heptacosa-1(25), 2(27), 3,5,8(26), 9,11,21,23-nonaen-16-one], the “percentage of CXCR4 positive cells after step 1” value in assay [1] is “equivalent or slightly higher percentage of CXCR4 positive cells”.

On to `O=C1CCN2CCN(CC2)Cc2cc(Cl)cc(c2)Nc2ncnc(n2)-c2cncc(c2)CCCN1` [Compound 34, 5-Chloro-1,8,10,12,16,22,26,32-octaazapentacyclo[24.2.2.1˜3.7˜0.1˜9,13˜0.1˜14.18˜]tritriaconta-3(33), 4,6,9(32), 10,12,14(31), 15,17-nonaen-23-one], for which the “SOX17 expression in the presence of GDF-8” value in assay [2] (2.5 μM compound with 100 ng/ml GDF-8, four days) is listed as “induced significant SOX17 expression”. Moreover, in assay [2] (setting [3]), the “Cell Number, Average Total Cell Number” value was 13926; the “Sox17 Expression, Average Total Intensity” value was 2.6E+08; the “Cell Number, % of positive control” value is listed as 96.2 % of positive control; the “Sox17 Expression, % of positive control” value is on record as 111.8 % of positive control.

For “GDF-8: growth factor GDF-8, also known as myostatin, member of the TGF-β family”, in assay [2] (setting [4]), the “Cell Number, Average Total Cell Number” value came out at 2856; the “Sox17 Expression, Average Total Intensity” value stood at 2.2E+07; the “Cell Number, % of positive control” value is listed as 19.7 % of positive control; the “Sox17 Expression, % of positive control” value is 9.4 % of positive control.
